Biological target: human ADRB2 (Homo sapiens, UniProt P07550)
Assay: Calcium mobilization assay
Type: cell-based
Settings: in words; for ADRB2 antagonist activity: Figure 4B

human ADRB2, sequence (P07550 whole entry): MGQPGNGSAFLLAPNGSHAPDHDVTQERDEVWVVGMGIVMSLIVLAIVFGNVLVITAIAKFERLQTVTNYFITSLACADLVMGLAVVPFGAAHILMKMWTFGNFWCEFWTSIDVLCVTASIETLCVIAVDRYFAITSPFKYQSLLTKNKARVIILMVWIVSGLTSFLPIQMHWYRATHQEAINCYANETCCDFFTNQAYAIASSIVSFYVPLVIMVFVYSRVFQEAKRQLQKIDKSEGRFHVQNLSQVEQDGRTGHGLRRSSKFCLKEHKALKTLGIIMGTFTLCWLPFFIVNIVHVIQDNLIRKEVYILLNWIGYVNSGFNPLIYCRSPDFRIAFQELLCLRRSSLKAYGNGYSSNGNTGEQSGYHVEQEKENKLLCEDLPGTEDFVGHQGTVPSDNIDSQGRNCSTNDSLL

Row | ADRB2 agonist activity (Figure 4A) | ADRB2 antagonist activity | SMILES
1 | weak ADRB2 agonist activity | – | Cc1ccc(-n2c(C)ccc2C)c2c1CC(C)(C)O2 [Compound 5, 2,5-Dimethyl-1-(2,2,4-trimethyl-2,3-dihydro-1-benzofuran-7-yl)-1H-pyrrole]
2 | – | strong ADRB2 antagonist activity | Cc1cc2c(OCC(O)CNC(C)(C)C)cccc2[nH]1 (stereo not drawn) [Compound 8, 1-(tert-butylamino)-3-[(2-methyl-1H-indol-4-yl)oxy]-2-propanol, reference compound]
3 | – | strong ADRB2 antagonist activity | COCCCNCC(O)COc1cccc2[nH]c(C)cc12 (stereo not drawn) [Compound 33, 1-[(3-Methoxypropyl)amino]-3-[(2-methyl-1H-indol-4-yl)oxy]-2-propanol]
